Among the data in ChEMBL document CHEMBL1629509, “Design, synthesis and inhibitory activity against Mycobacterium tuberculosis thymidine monophosphate kinase of acyclic nucleoside analogues with a distal imidazoquinolinone” (Eur J Med Chem, 2010) are Activity values, retold here.

The structures appear in SMILES notation. Activity calls are given as the source filed them. No cut-off for these calls is given here.

This assay relates to Mycobacterium tuberculosis variant bovis BCG. The assay is described as follows: Antimycobacterial activity against Mycobacterium bovis BCG Pasteur assessed as growth inhibition at 160 ug/ml by resazurin microtiter plate assay. Type of assay: functional, organism-based.
For the compound `CC(=O)Nc1cc2c3c(c1)n(C/C=C/Cn1cc(C)c(=O)[nH]c1=O)c(=O)n3CCC2`, the outcome was inactive.

With `O=c1[nH]c(=O)n(C/C=C/CN2c3cccc4c3N(CCC4)S2(=O)=O)cc1Br`, the result was inactive. Then `Cc1cn(C/C=C/CN2c3cccc4c3N(CCC4)S2(=O)=O)c(=O)[nH]c1=O`, with “inactive”. The entry for `Cc1cn(C/C=C/Cn2c(=O)n3c4c(cc(N)cc42)CCC3)c(=O)[nH]c1=O` is “inactive”; for `CC(=O)NC1Cc2cccc3c2n(c(=O)n3C/C=C/Cn2cc(C)c(=O)[nH]c2=O)C1` (configuration not stated) it is “inactive”; for `Cc1cn(C/C=C/Cn2c(=O)n3c4c(cccc42)CCC3)c(=O)[nH]c1=O` it is “inactive”. With `Cc1cn(C/C=C/Cn2c(=O)n3c4c(cccc42)CC(N)C3)c(=O)[nH]c1=O` (configuration not stated), the result was inactive.
